This is an account of results in ChEMBL document CHEMBL1201862, “PubChem BioAssay data set” (2004).

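1) Cells in 96-well plates. 2) Compound, 48 h, 5 concentrations. 3) Linear interpolation between surrounding doses. 4) Unreached endpoint = highest concentration. GI50 = concentration required for 50% inhibition of growth.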 Calls of active or inactive are those of the source. Cut-off read from the data, not from the text of the source: active = GI50 up to about 1.1 µM and inactive = higher.

Some test systems named below: 786-0; COLO 205; DU-145; HL-60; Hs-578T; K562; LOX IMVI; MOLT-4; Malme-3M; OVCAR-4; OVCAR-5; RXF 393; SF-268; SF-539; SK-OV-3; SNB-75; SR; SW-620; UACC-62; CCRF-CEM.
Holding throughout (test): NCI-60 cell line screen, 48 h

`Nc1c2c(nc3ccccc13)CCCc1ccccc1-2`: the GI50 in the test on 786-0 is 11.3 µM (inactive); in the test with COLO 205, 8.32 µM (inactive); with DU-145, 21.5 µM (inactive); in the test on HL-60, 5.9 µM (inactive); in the test on Hs-578T, 22.6 µM (inactive); in the test on K562 it was 5.7 µM (inactive). In addition, the GI50 in the test with LOX IMVI was 8.69 µM (inactive); in the test with MOLT-4, 16.6 µM (inactive); in the test with Malme-3M it was 18.5 µM (inactive); in the test on OVCAR-4 it was 20.1 µM (inactive); with OVCAR-5 it was 12.4 µM (inactive); in the test on RXF 393, 11.4 µM (inactive). For the same compound, the GI50 in the test on SF-268 was 16.9 µM (inactive); with SF-539, 8.83 µM (inactive); in the test with SK-OV-3, 33.5 µM (inactive); with SNB-75 it was 13.5 µM (inactive); in the test with SR, 7.35 µM (inactive); in the test with SW-620, 5.94 µM (inactive). The GI50 with UACC-62 is 6.7 µM (inactive).
On to `CCOC(=O)CC(=O)Nc1cccc2nc[nH]c12`, for which the GI50 was > 100 µM (inactive) in the test with 786-0; > 100 µM (inactive) in the test on CCRF-CEM; > 100 µM (inactive) with COLO 205; > 100 µM (inactive) with DU-145; > 100 µM (inactive) in the test on HL-60; 0.267 µM (active) in the test with Hs-578T. Also, the GI50 with K562, in the test with MOLT-4, with Malme-3M, in the test with OVCAR-4, in the test on OVCAR-5 and in the test on RXF 393 was > 100 µM (inactive) in each case. Also, the GI50 in the test with SF-268 is 98.2 µM (inactive); in the test with SF-539, > 100 µM (inactive); in the test on SK-OV-3, > 100 µM (inactive); in the test on SNB-75 it was 0.294 µM (active); with SR, > 100 µM (inactive); with SW-620, > 100 µM (inactive). In addition, the GI50 with UACC-62 was > 100 µM (inactive).
With `CC(=O)Nc1cc2cc(N)ccc2oc1=O`, the GI50 in the test with 786-0, in the test with CCRF-CEM, with COLO 205, with DU-145, with HL-60 and in the test on Hs-578T was > 100 µM (inactive) throughout. The GI50 in the test on K562, with LOX IMVI, with MOLT-4, in the test with Malme-3M, with OVCAR-4 and with OVCAR-5 was > 100 µM (inactive) throughout. Moreover, the GI50 was 0.0411 µM (active) in the test on RXF 393; > 100 µM (inactive) in the test with SF-268; > 100 µM (inactive) in the test on SF-539; > 100 µM (inactive) in the test with SR; > 100 µM (inactive) in the test with SW-620.
Regarding `CC(=O)OCC1OC(N2C(C)=C(C(C)=O)C(c3ccco3)C(C#N)=C2S)C(OC(C)=O)C(OC(C)=O)C1OC(C)=O` (stereo not given), the GI50 in the test with 786-0, in the test with CCRF-CEM, with COLO 205, in the test on DU-145, with HL-60 and with Hs-578T was > 100 µM (inactive) in each case. The GI50 in the test with K562, in the test on LOX IMVI, in the test on MOLT-4, in the test with Malme-3M, in the test with OVCAR-4 and in the test on OVCAR-5 was > 100 µM (inactive) each time. In addition, the GI50 with RXF 393 is > 100 µM (inactive); in the test with SF-268 it was > 100 µM (inactive); in the test on SF-539, > 100 µM (inactive); in the test with SNB-75 it was > 100 µM (inactive); with SR it was 95.3 µM (inactive); with SW-620, > 100 µM (inactive). The GI50 in the test on UACC-62 was > 100 µM (inactive).
Consider `OC(Cc1cnnc2ccccc12)C(Cl)(Cl)Cl` (stereo not given), for which the GI50 with 786-0, in the test on CCRF-CEM, with COLO 205, in the test on DU-145, in the test with HL-60 and in the test on Hs-578T was > 10 µM (inactive) throughout. The GI50 in the test on K562, with LOX IMVI, with MOLT-4, with Malme-3M, in the test on OVCAR-4 and in the test with RXF 393 was > 10 µM (inactive) throughout. Moreover, the GI50 in the test with SF-268, in the test on SF-539, in the test on SK-OV-3, in the test with SNB-75, with SR and in the test with SW-620 was > 10 µM (inactive) throughout. Moreover, the GI50 in the test with UACC-62 was > 10 µM (inactive).
Turning to `Cc1cc(=O)[nH]c2cc(NC(=O)C(C)NC(=O)C(C)NC(=O)C(C)NC(=O)OC(C)(C)C)ccc12` (stereo not given), the GI50 in the test on 786-0, in the test on CCRF-CEM, with COLO 205, in the test with DU-145, with HL-60 and with Hs-578T was > 15 µM (inactive) each time. Further, the GI50 in the test with K562, with LOX IMVI, in the test on MOLT-4, in the test on OVCAR-4, with OVCAR-5 and with RXF 393 was > 15 µM (inactive) each time. Moreover, the GI50 in the test with SF-268, in the test with SF-539, in the test on SNB-75, in the test with SR, in the test with SW-620 and with UACC-62 was > 15 µM (inactive) each time.
On to `CC1=NN(c2nc(N)nc(CC#N)n2)C(C)(C)C1`, for which the GI50 in the test on 786-0, in the test on CCRF-CEM, with COLO 205, in the test with DU-145, with HL-60 and in the test with Hs-578T was > 100 µM (inactive) throughout. The GI50 in the test on K562, in the test with LOX IMVI, with MOLT-4, in the test with OVCAR-4, with RXF 393 and with SF-268 was > 100 µM (inactive) each time. Further, the GI50 with SF-539, with SK-OV-3, in the test on SNB-75, in the test on SR, in the test on SW-620 and in the test on UACC-62 was > 100 µM (inactive) each time.
As to `CCO/C=N\C1=C(C#N)SC2=N/C(=C\c3ccc(OC)cc3)C(=O)N21`, the GI50 with 786-0 was 40.6 µM (inactive); in the test with CCRF-CEM, > 100 µM (inactive); in the test with COLO 205, > 100 µM (inactive); in the test with DU-145, > 100 µM (inactive); in the test with HL-60, 87.1 µM (inactive); with Hs-578T it was 33.7 µM (inactive). Besides, the GI50 in the test with K562 is 25.9 µM (inactive); in the test on LOX IMVI, > 100 µM (inactive); with MOLT-4, > 100 µM (inactive); in the test on Malme-3M, > 100 µM (inactive); in the test on OVCAR-4 it was 15.4 µM (inactive); with OVCAR-5 it was > 100 µM (inactive). For the same compound, the GI50 in the test on RXF 393 was 43.5 µM (inactive); in the test with SF-268 it was 45.4 µM (inactive); with SF-539, > 100 µM (inactive); with SK-OV-3, 96.8 µM (inactive); in the test with SNB-75, 19.2 µM (inactive); in the test with SR, 82.8 µM (inactive). In addition, the GI50 with SW-620 was > 100 µM (inactive).
Turning to `CN1CC[N+](C)=C1c1ccccc1`, the GI50 in the test on 786-0, in the test on CCRF-CEM, in the test with COLO 205, with DU-145, in the test on HL-60 and in the test with Hs-578T was > 100 µM (inactive) in each case. Also, the GI50 in the test with K562, in the test with LOX IMVI, with MOLT-4, with Malme-3M, with OVCAR-4 and in the test on OVCAR-5 was > 100 µM (inactive) in each case. Also, the GI50 with RXF 393, in the test with SF-268, in the test on SF-539, with SK-OV-3, in the test with SNB-75 and in the test with SR was > 100 µM (inactive) each time. For the same compound, in the test with SW-620, the GI50 was > 100 µM (inactive).
Take `N=C1OC(c2c[nH]c3ccc(OCc4ccccc4)cc23)C(O)=C1O` (stereo not given): the GI50 with 786-0 was > 100 µM (inactive); in the test with COLO 205 it was > 100 µM (inactive); in the test on DU-145, > 100 µM (inactive); in the test with HL-60, 71.1 µM (inactive); with Hs-578T, > 100 µM (inactive); in the test with K562 it was > 100 µM (inactive). The GI50 in the test with LOX IMVI, in the test with MOLT-4, with Malme-3M, with OVCAR-4, with OVCAR-5 and with RXF 393 was > 100 µM (inactive) in each case. The GI50 is > 100 µM (inactive) in the test on SF-268; > 100 µM (inactive) with SF-539; > 100 µM (inactive) in the test on SK-OV-3; 29.2 µM (inactive) with SNB-75; > 100 µM (inactive) in the test on SR; > 100 µM (inactive) in the test with SW-620. Besides, the GI50 in the test with UACC-62 is > 100 µM (inactive).
As for `O=c1cc(O)c2c(O)cc(O)cc2o1`, the GI50 with 786-0, in the test with CCRF-CEM, in the test with COLO 205, in the test on DU-145, in the test on HL-60 and with Hs-578T was > 100 µM (inactive) in each case. The GI50 with K562, with LOX IMVI, with MOLT-4, in the test on Malme-3M, in the test with OVCAR-4 and in the test with OVCAR-5 was > 100 µM (inactive) each time. For the same compound, the GI50 with RXF 393, in the test on SF-268, in the test with SF-539, in the test on SNB-75, in the test on SR and in the test on SW-620 was > 100 µM (inactive) each time. Further, the GI50 with UACC-62 is > 100 µM (inactive).
